From patent US11787764B2, “Heptamethine cyanines for use as fluorescent markers of the biliary and renal systems” (CHILDREN'S NATIONAL MEDICAL CENTER, priority 2018, dated 2023)

Experiments:
[1] = tested on: Sprague-Dawley rats; conditions: rat, in vivo, iv, 90 ug/kg
[2] = Quantum yield measurement

Row | Structure (SMILES) | excretion into bile / biliary clearance (in words) [1] | quantum yield [2]
1 | CN(CCOC1=C(/C=C/C2=[N+](CCCCS(=O)(=O)[O-])c3ccccc3C2(C)C)CCC/C1=C\C=C1\N(CCCCS(=O)(=O)O)c2ccccc2C1(C)C)C(=O)CCCC(=O)O [FNIR-Ar-H_N-BS] | excellent biliary clearance | –
2 | CC1(C)C(/C=C/C=C/C=C/C=C2\N(CCCCS(=O)(=O)O)c3ccc4ccccc4c3C2(C)C)=[N+](CCCCS(=O)(=O)[O-])c2ccc3ccccc3c21 [ICG, indocyanine green] | – | 9%
3 | CC1(C)C(=CC=C2CCCC(C=CC3=[N+](CCCCCC(=O)[O-])c4ccc(S(=O)(=O)[O-])cc4C3(C)C)=C2Oc2ccc(S(=O)(=O)[O-])cc2)N(CCCCS(=O)(=O)[O-])c2ccc(S(=O)(=O)[O-])cc21.[Na+].[Na+].[Na+].[Na+] [IRDye® 800CW] | excretes rapidly into bile | –
